# Results reported in patent publication US11505526B2, “Aryl-piperidine derivatives” (Artax Biopharma Inc., priority 2017, dated 2022).
# Read-outs that look alike come from different tables or passages of the source.
# Columns and labels:
# [1] = biological target: CYP2D6 (Homo sapiens (Human), UniProt P10635); test: CYP inhibition, CYP2D6; assay type: in vitro ADME; conditions: microsomes, metabolite dextrorphan
# Procedure: (§1) For each isozyme, microsomes-buffer-substrate mixture (MBS mix) is prepared by premixing appropriate volumes of buffer, microsomes and substrate. MBS mixture (179 μL) is transferred to a 96-well reaction plate. An aliquot (1 μL) is spiked from corresponding wells of Test Item stock solution plate to reaction plate. The reaction plate is pre-incubated for 5 minutes at 37° C. Reaction is initiated by the addition of 20 μL of NADPH solution. Each experiment is performed in duplicate. Reaction plate is incubated for predetermined time at 37° C. and quenched using either 200 μL of acetonitrile (for CYP2C9, CYP2D6, CYP2C19 and CYP3A4) or 200 μL of a mixture of 70:30 1% formic acid:acetonitrile (for CYP1A2).
# [2] = biological target: CYP2C19 (Homo sapiens (Human), UniProt P33261); test: CYP inhibition, CYP2C19; assay type: in vitro ADME; conditions: microsomes, metabolite 4′-hydroxy mephenytoin
# CYP2C19, sequence (P33261 whole entry): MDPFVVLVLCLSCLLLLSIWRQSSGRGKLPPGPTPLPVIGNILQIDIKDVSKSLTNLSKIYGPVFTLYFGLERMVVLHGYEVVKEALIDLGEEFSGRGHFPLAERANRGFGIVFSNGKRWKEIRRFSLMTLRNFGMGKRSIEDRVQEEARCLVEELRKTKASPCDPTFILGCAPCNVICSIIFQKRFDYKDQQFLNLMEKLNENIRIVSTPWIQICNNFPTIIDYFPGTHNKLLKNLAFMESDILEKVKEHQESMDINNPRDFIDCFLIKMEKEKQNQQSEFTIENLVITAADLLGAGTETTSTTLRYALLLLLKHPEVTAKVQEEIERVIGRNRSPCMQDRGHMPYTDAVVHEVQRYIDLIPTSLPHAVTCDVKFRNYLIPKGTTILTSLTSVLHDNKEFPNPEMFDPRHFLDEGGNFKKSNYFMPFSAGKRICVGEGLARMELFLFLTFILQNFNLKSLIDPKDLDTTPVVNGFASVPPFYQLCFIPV
# Procedure: as §1
# [3] = Microsomal stability, mouse liver microsomes; assay type: in vitro ADME; conditions: 0.5 mg/mL protein, read-out: Microsomal stability (T1/2 min) Mouse
# Procedure: (§2) Intrinsic clearance studies are performed individually with mouse, rat and human liver microsomes at 0.5 mg/mL protein concentration. Briefly, for protein concentration 0.5 mg/mL assay, liver microsomal protein (12.5 uL), NAPDH (50 uL) and phosphate buffer (435 uL) are co-incubated (pre-incubation) in a 96-well deep well plate in an orbital incubator (10 min, 37° C.). Reactions are initiated by the addition of 2.5 uL of test item working stock solution (100 uM). Aliquots (50 uL) are withdrawn from the reaction tube at 0, 5, 10, 20 and 30 minutes and the reaction is immediately terminated by transferring to a 96 deep well plate containing 50 uL of acetonitrile. Verapamil is used as a positive control in mouse, rat and human liver microsomes. To the quenched samples internal standard is added and vortex mixed followed by centrifugation at 4000 rpm for 10 minutes and an aliquot of supernatant is taken for LC-MS/MS analysis. Samples are analyzed by a suitable fit-for-purpose multiple reaction monitoring method developed on LC-MS/MS using and API 4000 mass spectrometer to estimate the area ratio (analyte peak area/internal standard peak area).
# [4] = Microsomal stability, rat liver microsomes; assay type: in vitro ADME; conditions: 0.5 mg/mL protein, read-out: Microsomal stability (T1/2 min) Rat
# Procedure: as §2
# [5] = Microsomal stability, human liver microsomes; assay type: in vitro ADME; conditions: 0.5 mg/mL protein, read-out: Microsomal stability (T1/2 min) Human
# Procedure: as §2
# [6] = biological target: CYP1A2 (Homo sapiens (Human), UniProt P05177); test: CYP inhibition, CYP1A2; assay type: in vitro ADME; conditions: microsomes, metabolite acetaminophen
# CYP1A2, sequence (P05177 whole entry): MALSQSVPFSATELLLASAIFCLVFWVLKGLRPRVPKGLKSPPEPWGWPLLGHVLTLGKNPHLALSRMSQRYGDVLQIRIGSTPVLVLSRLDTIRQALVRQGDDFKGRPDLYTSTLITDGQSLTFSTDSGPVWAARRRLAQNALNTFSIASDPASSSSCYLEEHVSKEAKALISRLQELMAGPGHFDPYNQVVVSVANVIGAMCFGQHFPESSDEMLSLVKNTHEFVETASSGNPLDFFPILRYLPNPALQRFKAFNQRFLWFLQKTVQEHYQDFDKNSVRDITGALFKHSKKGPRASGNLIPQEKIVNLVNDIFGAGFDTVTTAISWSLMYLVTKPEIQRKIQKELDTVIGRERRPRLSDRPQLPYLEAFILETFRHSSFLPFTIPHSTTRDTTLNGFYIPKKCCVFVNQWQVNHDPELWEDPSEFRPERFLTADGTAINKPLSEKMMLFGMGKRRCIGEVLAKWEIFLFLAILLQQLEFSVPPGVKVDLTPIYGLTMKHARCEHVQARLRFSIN
# Procedure: as §1
# [7] = biological target: CYP2C9 (Homo sapiens (Human), UniProt P11712); test: CYP inhibition, CYP2C9; assay type: in vitro ADME; conditions: microsomes, metabolite 4-hydroxy diclofenac
# CYP2C9, sequence (P11712 whole entry): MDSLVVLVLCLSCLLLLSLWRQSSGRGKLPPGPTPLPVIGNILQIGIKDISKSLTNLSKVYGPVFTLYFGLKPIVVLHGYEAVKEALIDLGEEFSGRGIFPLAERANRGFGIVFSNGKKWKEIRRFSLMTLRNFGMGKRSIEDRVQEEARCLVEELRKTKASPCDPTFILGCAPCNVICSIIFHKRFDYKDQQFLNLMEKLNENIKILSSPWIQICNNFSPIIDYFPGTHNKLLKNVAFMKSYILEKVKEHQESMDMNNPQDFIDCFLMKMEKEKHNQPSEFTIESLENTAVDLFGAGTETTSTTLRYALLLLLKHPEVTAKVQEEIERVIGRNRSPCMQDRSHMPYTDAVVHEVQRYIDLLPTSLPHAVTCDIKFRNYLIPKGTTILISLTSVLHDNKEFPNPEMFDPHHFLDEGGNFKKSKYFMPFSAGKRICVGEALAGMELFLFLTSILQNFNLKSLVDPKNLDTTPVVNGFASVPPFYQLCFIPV
# Procedure: as §1
# [8] = biological target: CYP3A4 (Homo sapiens (Human), UniProt P08684); test: CYP inhibition, CYP3A4; assay type: in vitro ADME; conditions: footnote not given, CYP3A4 metabolites monitored: 1-hydroxy midazolam, 6-β-hydroxy testosterone
# CYP3A4, sequence (P08684 whole entry): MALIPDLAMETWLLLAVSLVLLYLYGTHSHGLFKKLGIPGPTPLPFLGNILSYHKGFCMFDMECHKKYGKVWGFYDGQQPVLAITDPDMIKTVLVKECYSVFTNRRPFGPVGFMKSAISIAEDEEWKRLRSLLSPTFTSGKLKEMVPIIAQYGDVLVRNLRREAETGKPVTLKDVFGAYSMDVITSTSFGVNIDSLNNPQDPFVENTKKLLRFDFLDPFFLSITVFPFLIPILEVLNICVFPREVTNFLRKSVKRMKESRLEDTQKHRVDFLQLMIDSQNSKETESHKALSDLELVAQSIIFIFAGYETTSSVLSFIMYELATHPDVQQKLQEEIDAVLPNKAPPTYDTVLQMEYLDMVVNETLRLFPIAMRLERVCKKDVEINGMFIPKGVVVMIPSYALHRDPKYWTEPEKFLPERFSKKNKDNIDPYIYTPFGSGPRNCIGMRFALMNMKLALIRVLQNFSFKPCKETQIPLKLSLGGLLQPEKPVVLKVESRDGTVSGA
# Procedure: as §1
# [9] = biological target: hERG (IKr current) (Homo sapiens (Human), UniProt Q12809); test: hERG inhibition, patch clamp (Port-a-Patch) on HEK cells stably transfected with the hERG clone, IKr current; assay type: cell-based; conditions: human, HEK cells stably transfected with the hERG clone, pH 7.4, IKr current
# hERG (IKr current), sequence (Q12809 whole entry): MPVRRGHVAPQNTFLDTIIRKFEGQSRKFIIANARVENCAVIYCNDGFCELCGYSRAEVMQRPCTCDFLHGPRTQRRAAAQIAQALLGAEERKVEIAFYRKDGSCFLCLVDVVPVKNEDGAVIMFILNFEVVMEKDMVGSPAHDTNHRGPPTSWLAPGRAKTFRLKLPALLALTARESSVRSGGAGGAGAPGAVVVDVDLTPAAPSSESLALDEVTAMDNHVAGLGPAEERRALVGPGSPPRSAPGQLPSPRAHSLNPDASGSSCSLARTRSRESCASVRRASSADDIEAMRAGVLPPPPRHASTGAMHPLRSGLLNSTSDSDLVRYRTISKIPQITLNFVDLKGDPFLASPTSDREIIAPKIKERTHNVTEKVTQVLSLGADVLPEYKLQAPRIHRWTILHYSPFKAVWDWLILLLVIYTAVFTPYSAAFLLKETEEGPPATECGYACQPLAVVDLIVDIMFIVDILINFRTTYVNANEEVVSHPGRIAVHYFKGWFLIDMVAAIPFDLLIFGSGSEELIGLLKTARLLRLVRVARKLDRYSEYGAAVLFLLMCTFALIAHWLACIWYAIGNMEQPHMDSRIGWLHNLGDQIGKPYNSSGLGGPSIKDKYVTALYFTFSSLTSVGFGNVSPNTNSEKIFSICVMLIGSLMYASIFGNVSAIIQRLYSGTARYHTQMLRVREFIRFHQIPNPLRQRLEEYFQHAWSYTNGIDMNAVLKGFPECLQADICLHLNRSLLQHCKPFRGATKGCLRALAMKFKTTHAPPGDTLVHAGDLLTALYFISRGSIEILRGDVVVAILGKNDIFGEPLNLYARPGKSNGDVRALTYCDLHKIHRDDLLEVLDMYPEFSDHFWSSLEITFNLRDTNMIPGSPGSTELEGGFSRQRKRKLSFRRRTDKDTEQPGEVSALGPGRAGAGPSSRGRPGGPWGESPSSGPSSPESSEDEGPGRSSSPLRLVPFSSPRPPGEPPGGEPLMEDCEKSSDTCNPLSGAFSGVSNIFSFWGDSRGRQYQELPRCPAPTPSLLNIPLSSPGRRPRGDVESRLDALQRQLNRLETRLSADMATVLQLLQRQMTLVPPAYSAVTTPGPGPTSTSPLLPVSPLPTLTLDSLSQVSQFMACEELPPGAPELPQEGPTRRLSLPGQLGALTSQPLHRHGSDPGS
# Procedure: (§3) HEK cells stably transfected with the hERG clone are maintained at 37±2° C. in a 5% CO2 incubator. The cells are initially revived and grown in DMEM/F12+GlutaMAX-I medium supplemented with 9% fetal bovine serum (FBS) and antibiotics (Penicillin 100 IU/mL Streptomycin 100 μg/mL) (complete medium). Furthermore, the cells are continuously maintained and passaged in complete media in addition to the appropriate concentration of selection antibiotic (Geneticin (G418) 200 μg/mL) (Selection media). The cells are sub cultured every 2-3 days and medium is changed with complete medium at least a day before the experiment.
# (§4) The cells are harvested on the day of experiment, dislodged and suspended in sterile filtered external solution (NaCl 140 mM, KCl 4 mM, MgCl2 1 mM, CaCl2 2 mM, D-Glucose monohydrate 5 mM, Hepes/NaOH 10 mM, pH 7.4, Osmolarity:298+/−5 mOsmol).
# (§5) The NPC®-1 chip of the Port-a-Patch® is filled with 5 μL of internal solution (KCl 50 mM, NaCl 10 mM, KFl 60 mM, EGTA 20 mM, Hepes/KOH 10 mM, pH 7.2, Osmolarity: 285+/−5 mOsmol) and it is screwed onto the chip holder. The Faraday cage is then fixed on the chip holder, such that the external electrode is placed near to the chip aperture. 5 μL of external solution is added to the center of the aperture so that the external electrode is also in contact with the solution.
# (§6) The experiment is be initiated. […] The suction automatically attracts a cell to the aperture, resulting in an increase in the chip resistance. When the cell is captured and the set threshold for the resistance is reached, the software recognizes this increase in resistance and proceeds to the next step of the sealing procedure. 20 μL of seal enhancer solution (NaCl 80 mM, KCl 4 mM, MgCl2 10 mM, CaCl2) 35 mM, Hepes (Na+salt)/HCl pH 7.4, Osmolarity: 298+/−5 mOsmol) is added 2-3 times. When the threshold resistance is reached, Patch Control automatically moves to the step of improving the seal. When the desirable resistance (Rpip) is reached, whole cell mode is attained and maintained.
# (§7) Finally, hERG protocol is selected to run the experiment. The seal enhancer solution is replaced with 20 μL external solution after 2-4 rinses and then the test item is added (from lower to higher concentration) and checked for current inhibition. All the experiments are performed at ambient temperature (22-25° C.).
# (§8) A schematic diagram (FIG. 3) of the Pulse protocol: Cells are stimulated every 10 seconds using the following protocol. The holding potential, sweep intervals and the depolarization/repolarization potentials are furnished in the table below.
# (§9) Once the stable current is attained (at least 2-5 minutes) vehicle control is added and the current measured till the stable current is achieved. 3-5 consecutive data points from the last stable current phase are considered for further analysis. […] The system performs on-line analysis for several parameters which include functions that acquire data from traces and functions that perform calculations on the results of other functions.
# [10] = biological target: hERG (Homo sapiens (Human), UniProt Q12809); test: as above; assay type: cell-based; conditions: concentrations tested 1, 3, 10 and 30 μM
# hERG, sequence (Q12809 whole entry): as above
# Procedure: as §3, §4, §5, §6, §7, §8, §9
# [11] = CYP3A4^a, read-out: CYP IC50 uM CYP3A4^a
# [12] = read-out: Percent Inhibition Mean (%)
# [13] = read-out: Percent Inhibition Trial I
# [14] = read-out: Percent Inhibition Trial II
# CYP2D6, sequence (P10635 whole entry): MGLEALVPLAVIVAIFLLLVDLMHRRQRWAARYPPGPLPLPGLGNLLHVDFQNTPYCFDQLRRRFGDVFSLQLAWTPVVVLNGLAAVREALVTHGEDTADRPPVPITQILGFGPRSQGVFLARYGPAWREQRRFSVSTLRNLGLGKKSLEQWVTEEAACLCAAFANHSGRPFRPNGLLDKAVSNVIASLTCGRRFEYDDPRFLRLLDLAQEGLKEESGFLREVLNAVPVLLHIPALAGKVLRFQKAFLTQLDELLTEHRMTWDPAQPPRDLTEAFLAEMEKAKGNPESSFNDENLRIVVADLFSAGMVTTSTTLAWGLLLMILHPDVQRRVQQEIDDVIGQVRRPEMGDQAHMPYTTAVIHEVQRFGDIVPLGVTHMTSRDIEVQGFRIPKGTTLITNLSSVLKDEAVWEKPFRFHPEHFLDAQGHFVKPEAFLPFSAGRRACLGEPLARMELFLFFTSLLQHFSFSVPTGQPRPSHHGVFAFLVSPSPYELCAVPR
smiles,measurement,setting,value
O=C(c1ccc(Cl)cc1)C1CCCN(C(=O)c2ccccc2)C1 (stereo not drawn) [Compound V-4],IC50,[1],≤ 5 µM
same,IC50,[2],≤ 5 µM
same,half-life at 0.5 µM,[3],< 10 min
same,half-life at 0.5 µM,[4],< 10 min
same,half-life at 0.5 µM,[5],10 to 30 min
same,IC50,[6],≤ 5 µM
same,IC50,[7],5 to 20 µM
same,IC50,[8]; [11],> 50 µM
same,IC50,[8]; read-out: CYP IC50 uM CYP3A4^b,20 to 50 µM
same,inhibition at 1 µM,[9]; [12],13.2%
same,inhibition at 1 µM,[9]; [13],16.2%
same,inhibition at 1 µM,[9]; [14],10.2%
same,inhibition at 3 µM,[9]; [12],18.8%
same,inhibition at 3 µM,[9]; [13],20.5%
same,inhibition at 3 µM,[9]; [14],17%
same,inhibition at 10 µM,[9]; [12],23.1%
same,inhibition at 10 µM,[9]; [13],26.4%
same,inhibition at 10 µM,[9]; [14],19.8%
same,inhibition at 30 µM,[9]; [12],39.1%
same,inhibition at 30 µM,[9]; [13],39.5%
same,inhibition at 30 µM,[9]; [14],38.7%
same,IC50,[10],76 µM
O=C(c1ccncc1)C1CCCN(Cc2ccccc2)C1 (stereo not drawn) [IV-6],IC50,[1],≤ 5 µM
same,IC50,[2],≤ 5 µM
same,half-life at 0.5 µM,[3],< 10 min
same,half-life at 0.5 µM,[4],< 10 min
same,half-life at 0.5 µM,[5],10 to 30 min
same,IC50,[6],20 to 50 µM
same,IC50,[7],5 to 20 µM
same,IC50,[8]; [11],≤ 5 µM
same,IC50,[8]; read-out: CYP IC50 uM CYP3A4^b,5 to 20 µM
same,inhibition at 1 µM,[9]; [12],2.37%
same,inhibition at 1 µM,[9]; [13],0%
same,inhibition at 1 µM,[9]; [14],4.74%
same,inhibition at 3 µM,[9]; [12],0%
same,inhibition at 3 µM,[9]; [13],0%
same,inhibition at 3 µM,[9]; [14],0%
same,inhibition at 10 µM,[9]; [12],10.2%
same,inhibition at 10 µM,[9]; [13],7.16%
same,inhibition at 10 µM,[9]; [14],13.1%
same,inhibition at 30 µM,[9]; [12],35.5%
same,inhibition at 30 µM,[9]; [13],39.9%
same,inhibition at 30 µM,[9]; [14],31.1%
same,IC50,[10],44.6 µM
O=C(c1ncccn1)C1CCCN(Cc2ccccc2)C1 (stereo not drawn) [IV-7],IC50,[1],5 to 20 µM
same,IC50,[2],> 50 µM
same,half-life at 0.5 µM,[3],≥ 30 min
same,half-life at 0.5 µM,[4],10 to 30 min
same,half-life at 0.5 µM,[5],≥ 30 min
same,IC50,[6],> 50 µM
same,IC50,[7],> 50 µM
same,IC50,[8]; [11],> 50 µM
same,IC50,[8]; read-out: CYP IC50 uM CYP3A4^b,> 50 µM
same,inhibition at 1 µM,[9]; [12],0%
same,inhibition at 1 µM,[9]; [13],0%
same,inhibition at 1 µM,[9]; [14],0%
same,inhibition at 3 µM,[9]; [12],0.73%
same,inhibition at 3 µM,[9]; [13],1.46%
same,inhibition at 3 µM,[9]; [14],0%
same,inhibition at 10 µM,[9]; [12],1.99%
same,inhibition at 10 µM,[9]; [13],3.44%
same,inhibition at 10 µM,[9]; [14],0.54%
same,inhibition at 30 µM,[9]; [12],21.6%
same,inhibition at 30 µM,[9]; [13],17.2%
same,inhibition at 30 µM,[9]; [14],25.9%
same,IC50,[10],73.2 µM
